Assay: Ocular tension (IOP) lowering in rabbits after eye drop, Tonopen XL tonometer
Type: in vivo, Rabbits (New Zealand albino)
Conditions: eye drop of 0.5% preparation, 50 μL; for AUC0-8 hr Δ IOP % mean ± S.D.: IOP before, 2.5 h and 8 h after treatment, trapezoidal rule, change relative to pre-treatment; for ocular tension compared with the control group: p < 0.05 vs medium control
Protocol: Rabbits (New Zealand albino, body weight: 2.0 to 2.5 kg) having ocular tension of 15 mmHg before treated were used in this experiment. Experimental group of the rabbits were treated with an eye drop of the preparation of a 0.5% concentration of the compounds A and B with a dosage of 50 μL at a time. Control group of the rabbits were treated with an eye drop of a medium (ophthalmic solutions containing 0.40% of NaH2PO4, 0.47% of NaHPO4, 0.47% of NaCl, and 1.0% of polysorbate 80 with pH 6.8) with the same dosage as in the experimental group at a time. The ocular tension of the experimental group and the control group was measured with a Tonopen™ XL tonometer before treatment, 2.5 hours, and 8 hours after treatment.
Next, a ratio of ocular tension change relative to ocular tension measured before treatment (Δ IOP %) was calculated, and an area (AUC0-8hr Δ IOP %) defined by the area under the curve obtained by plotting out Δ IOP % with respect to the horizontal axis representing lapse of time was calculated in accordance with a method of trapezoidal rule.

Row | SMILES | AUC0-8 hr Δ IOP % mean ± S.D. [%] | ocular tension compared with the control group
1 | COc1cc(C(=O)N(C)c2ccc(C)cc2OCCCCCC(=O)N2CCN(C)CC2)ccc1NC(=O)c1ccccc1OCCCN [Compound A, 4-[2-(3-aminopropyl-1-yl)oxy]benzoylamino-3-methoxy-N-methyl-N-{4-methyl-2-[5-(4-methylpiperazin-1-yl)carbonylpent-1-yloxy]phenyl}benzamide] | −147.0 ± 89.0 | significantly lowered
2 | Cc1ccc(-c2ccccc2C(=O)Nc2ccc(C(=O)N3CCC(=O)N(CC(=O)N4CCN(C)CC4)c4ccccc43)cc2)cc1 [Compound B, 5-{4-[2-(4-methylphenyl)benzoylamino]benzoyl}-1-[(4-methyl-1-piperazinyl)carbonylmethyl]-1,3,4,5-tetrahydro-1,5-benzodi azepin-2(2H)-one] | −145.8 ± 87.7 | significantly lowered
